These results are taken from patent US11986529B2, “Pharmaceutical compositions and related methods of delivery” (priority 2008, dated 2024).

Where two headings read alike, the source gives them in different places.

For data set [1] the following is noted: rat, in vivo.
Protocol: (§1) Rats are allowed to recover for 4 days before the study and are deprived of food for 18 hours before the start of the study.
(§2) Levels of plasma dextran following administration of dextran in formulation or in saline were compared to the levels of plasma dextran after intravenous administration. Exposure values, AUC (0-90), were determined for jejunal and intravenous administration and the absolute bioavailability (aBA) was calculated according to the following equation: aBA=(jejunal AUC(0-90))/(iv AUC(0-90))*(iv dose/jejunal dose). Data are presented as Mean±SD (n≥5 rats per group).
(§3) The levels of dextran absorption from rat jejunum after administration of dextran in formulation were compared to the levels of dextran absorbed after intravenous administration. Exposure values, AUC (0-90), were determined for jejunal and intravenous administration and the absolute bioavailability (aBA) determined according to the following equation: aBA=(jejunal AUC(0-90))/(iv AUC(0-90))*(iv dose/jejunal dose). Data are presented as Mean±SD (n≥5 rats per group).
(§4) The levels of dextran absorption from rat jejunum after administration of dextran in formulation were compared to the levels of dextran absorbed after intravenous administration. Exposure values, AUC (0-90), were determined for jejunal and intravenous administration and the absolute Bioavailability (aBA) was determined according to the following equation: aBA=(jejunal AUC(0-90))/(iv AUC(0-90))*(iv dose/jejunal dose). Data are presented as Mean±SD (n≥5 rats per group).
Data set [2] is described as follows: Capsule administration to small intestine of non-anesthetized pigs (Nipple Valve gastric bypass). To be noted: pig, in vivo; read-out: level of bioavailability in pigs, extrapolated from rat results. The text has this:
In order to test the activity of the formulations of the invention when administrated in capsules, an animal model allowing capsule administration to pigs (domestic swine) was established. In order to bypass the stomach and allow direct administration of capsules to the small intestine of the pig, a well established model in dogs (“Nipple Valve model”; Wilsson-Rahmberg & O. Jonsson, Laboratory Animals (1997), 31, 231-240) was adapted to the commercial pig.
The two octreotide formulations shown below in Table 37 were prepared. The octreotide (x) formulation was prepared essentially as described above for the basic formulation wherein the hydrophilic fraction has been simplified to omit MgCl2 and MC400. […] The capsules were not enteric-coated i.e. they were uncoated.
The formulations described above in Table 37 were administered directly to the small intestine of the non-anesthetized pigs via the gastric bypass described above, and plasma octreotide levels were measured post-administration. Exposure values, AUC were determined for the formulations. The % BA was calculated compared to the exposure to octreotide after subcutaneous administration.

The nature of data set [3]: Intra-jejunal administration to non-anesthetized cannulated rats: plasma cargo levels, AUC, bioavailability. To be noted: rat.
Protocol: as §1, §2, §3, §4
For data set [4] the following is noted: rat, in vivo. The source holds these as a separate data set.
Protocol: Rats were anesthetized and were administered 100 μL of bulk drug formulation containing an insulin dose of 328 μg/rat (9 IU/rat). Blood samples were collected at 0, 3, 6, 10, 15, 25, 30, 40, 60 and 90 minutes post administration and serum was prepared for determination of human insulin by an immunoassay kit with no cross reactivity between rat and human insulin.
Rats were anesthetized and administered 100 μL of test article (insulin in formulation or insulin in PBS) containing an insulin dose of 328 μg/rat (9 IU/rat). Blood samples were collected at 0, 3, 6, 10, 15, 25, 30, 40, 60 and 90 minutes post administration. Glucose level was immediately determined with a glucometer and serum was prepared for determination of human insulin by an immunoassay kit with no cross reactivity between rat and human insulin.
Blood samples were collected at 0, 3, 6, 10, 15, 25, 30, 40, 60 and 90 minutes post rectal administration and at 0, 15, 30, 45, 60, 90 min, 2, 3, and 4 hours post SC administration. Glucose was immediately determined with a glucometer and insulin by an immunoassay kit. Glucose levels are presented as the percentage form basal levels measured before administration (time 0).
The levels of insulin absorption from rat colon after insulin in formulation administration were compared to the levels of insulin absorbed after SC administration. […]
The conditions of data set [5]: rat, in vivo. The source holds these as a separate data set.
Description: Enteric-coated capsules for rats are not available and therefore stomach bypass enabling direct intra-jejunal administration is needed.
A specialized rat model in which three different cannulas are surgically implanted in anesthetized rats was developed: 1. Jejunal cannula—stomach bypass, enables insulin formulation administration, 2. Portal vein cannula—blood sampling prior to the liver, determine insulin that cross the GI wall into the blood, and 3. Jugular vein cannula—to determine the systemic levels of insulin.
Rats (8 rats per group) were anesthetized and their jejunum exposed by abdominal surgery. The jejunum containing intestinal loop was placed on gauze and kept moist and fully intact throughout the entire study. A temporary cannula was inserted into the jejunum and formulated insulin was administered. Blood was collected from both portal and jugular veins at the same time points, with approximately 4 time points per rat. The MEAN±SD value of each time point was used to create a plasma concentration vs. time curve. AUC was determined and rBA was calculated.
The subject of a further data set is blood glucose. The data set is described as follows: Blood glucose after rectal administration of insulin to rats. The format is in vivo. To be noted: rat, insulin 328 μg/rat. The text has this: The data of FIG. 3 is presented as MEAN±SD, n=5.

Consider `CCNC(=O)[C@@H]1CCCN1C(=O)[C@H](CCCNC(=N)N)NC(=O)[C@H](CC(C)C)NC(=O)[C@@H](CC(C)C)NC(=O)[C@H](Cc1ccc(O)cc1)NC(=O)[C@H](CO)NC(=O)[C@H](Cc1c[nH]c2ccccc12)NC(=O)[C@H](Cc1c[nH]cn1)NC(=O)[C@@H]1CCC(=O)N1` [leuprolide in PBS, leuprolide], for which the “bioavailability / penetration to the bloodstream” value (from here on “bioavailability / penetration”) in data set [1] was “negligible penetration to the bloodstream”.
In general, bioavailability refers to dose-corrected exposure relative to a reference, in per cent. As for `C[C@@H](O)[C@@H]1NC(=O)[C@H](CCCCN)NC(=O)[C@@H](Cc2c[nH]c3ccccc23)NC(=O)[C@H](Cc2ccccc2)NC(=O)[C@@H](NC(=O)[C@H](N)Cc2ccccc2)CSSC[C@@H](C(=O)N[C@H](CO)[C@@H](C)O)NC1=O` [octreotide], in data set [2], the bioavailability is about 0.1%.
As for `CC[C@H](C)[C@H](NC(=O)[C@H](CCC(=O)O)NC(=O)[C@H](CO)NC(=O)[C@@H](NC(=O)[C@@H](N)CO)C(C)C)C(=O)N[C@@H](CCC(N)=O)C(=O)N[C@@H](CC(C)C)C(=O)N[C@@H](CCSC)C(=O)N[C@@H](Cc1cnc[nH]1)C(=O)N[C@@H](CC(N)=O)C(=O)N[C@@H](CC(C)C)C(=O)NCC(=O)N[C@@H](CCCCN)C(=O)N[C@@H](Cc1cnc[nH]1)C(=O)N[C@@H](CC(C)C)C(=O)N[C@@H](CC(N)=O)C(=O)N[C@@H](CO)C(=O)N[C@@H](CCSC)C(=O)N[C@@H](CCC(=O)O)C(=O)N[C@@H](CCCN=C(N)N)C(=O)N[C@H](C(=O)N[C@@H](CCC(=O)O)C(=O)N[C@@H](Cc1c[nH]c2ccccc12)C(=O)N[C@@H](CC(C)C)C(=O)N[C@@H](CCCN=C(N)N)C(=O)N[C@@H](CCCCN)C(=O)N[C@@H](CCCCN)C(=O)N[C@@H](CC(C)C)C(=O)N[C@@H](CCC(N)=O)C(=O)N[C@@H](CC(=O)O)C(=O)N[C@H](C(=O)N[C@@H](Cc1cnc[nH]1)C(=O)N[C@@H](CC(N)=O)C(=O)N[C@@H](Cc1ccccc1)C(=O)O)C(C)C)C(C)C` [teriparatide in saline, teriparatide], the “bioavailability / penetration” value in data set [1] is reported as “no penetration to the bloodstream”.
Consider `CN[C@H](CC(C)C)C(=O)N[C@H]1C(=O)N[C@@H](CC(N)=O)C(=O)N[C@H]2C(=O)N[C@H]3C(=O)N[C@H](C(=O)N[C@H](C(=O)O)c4cc(O)cc(O)c4-c4cc3ccc4O)[C@H](O)c3ccc(c(Cl)c3)Oc3cc2cc(c3O[C@@H]2O[C@H](CO)[C@@H](O)[C@H](O)[C@H]2O[C@H]2C[C@](C)(N)[C@H](O)[C@H](C)O2)Oc2ccc(cc2Cl)[C@H]1O` [vancomycin in saline solution, vancomycin], for which the “bioavailability / penetration” value in data set [3] is reported as “no BA was detected”.
For “hGH in PBS: human growth hormone in PBS, control”, in data set [4], the “penetration to the bloodstream” value is reported as “no penetration to the bloodstream”.
Regarding “insulin control: unformulated insulin control given intra-jejunally”, the “insulin absorbance” value in data set [5] is reported as “minimal insulin absorbance”.
As for “insulin in PBS: human insulin solubilized in PBS”, the “glucose reduction” value in the data set with blood glucose is reported as “only a very slight glucose reduction”.
